Structures are written as SMILES.

Format in all cases: cell-based
In experiment [1] the target is T1, EZH2 (Homo sapiens, UniProt Q15910).
T1 construct: endogenous in cells; host or cells: MDA-MB-231
The experiment in a line: Cellular assay of EZH2 degradation (MDA-MB-231 cells, Western blot). The settings on record: EZH2, MDA-MB-231 cells, PROTAC concentration 3 μM, relative to DMSO control. As for the experimental part: Protocol of the Cellular Assay of EZH2 Degradation (MDA-MB-231 Cells, Western Blot).
MDA-MB-231 cells were plated at 10,000 cells per well in 6 well plates, 2 ml/well in DMEM+10% Fetal Bovine Serum. Cells were allowed to grow for 3 days at 37 degrees C. Cells were dosed with PROTACs. On day 3 and day 7 after dosing, cells were harvested and lysed with RIPA buffer. Lysed cells were transferred to eppendorf tubes, and each lysate was sonicated and then spinned in microfuge for 15 minutes at 20,000×g at 4 degrees C. Supernatant was transferred to a clean tube, and protein concentration was quantitated using the Pierce BCA Protein Assay kit (cat #23225). Lysate concentrations were adjusted to 1 microgram/microliter in lysis buffer. For Western blot samples were loaded in 4×LDS buffer, 10 microliters/lane, onto Noxex NuPage 4-12% Bis-Tris Midi Gel […]×26 well.
Gels were run on BioRad power source Model 1000/500, at 200V constant voltage for 1 hour. Gels were then transferred onto a nitrocellulose membrane using an iBlot2 transfer apparatus from Life Technologies. Transfers were done on Program 0 and blocked for 1 hour in TBS-T (Tris Buffered Saline with 0.05% Tween 20)+5% BSA (Bovine Serum Albumin). Block solution was decanted, and the primary antibody solutions were added (EZH2-Cell Signaling #5246S; tri-methyl-Histone H3-Cell Signaling #9733S; Histone H3-Cell Signaling #4499; all diluted 1:1000 in 20 ml TBS-T+5% BSA). The preparation was placed in cold room (4 degrees C.) overnight on rocker platform, after which the antibody solution was decanted. The preparation was washed 3 times in TBS-T for 10 minutes each, and anti-rabbit secondary antibody (Cell Signaling #7074S), diluted 1:20,000 in TBS-T+5% BSA, was added. This was followed by incubating for 1 hour at room temperature with gentle rocking and washing 3 times in TBS-T. To develop blots SuperSignal™ West Femto Maximum Sensitivity Substrate (Life Technologies Catalog number: 34095) solution was applied for 5 minutes. Blots were imaged on BioRad ChemiDoc Imager using the “Chemi Hi Sensitivity” protocol. Bands were quantitated using Image Lab software v 5.2.1.
On the technique in general: Immunoblotting shows a protein as a band on a membrane.

Experiment [2] concerns the target T2, JNK1 (Homo sapiens, UniProt P45983).
T2 construct: A549 lung adenocarcinoma cells were purchased from ATCC and cultured in RPMI1640 Medium; endogenous in cells; host or cells: A549
Nature of the experiment: Cellular assay of JNK degradation (A549 cells, Western blot), JNK1. As to conditions: for JNK1 degradation range: PROTAC concentration 1 μM, relative to DMSO control; for DC50: read-out: JNK1 DC50 range. The procedure: (§1) Protocol of the cellular assay of JNK degradation (A549 cells, Western blot). A549 lung adenocarcinoma cells were purchased from ATCC and cultured in RPMI1640 Medium (Gibco) supplemented with 10% Fetal Bovine Serum (Gibco). […] Cells were stimulated with PMA (Phorbol 12-myristate 13-acetate, Sigma) for 1 hour before harvesting. Cells were lysed in Cell Signaling lysis buffer supplemented with protease inhibitors (Thermo). The lysates were centrifuged at 20,000×g for 15 minutes to clarify, and protein concentration was determined by BCA (Pierce). Equal amounts of protein (5 micrograms) were separated by SDS-PAGE and transferred onto nitrocellulose membranes. The mermbranes were probed with antibodies against SAPK/JNK (Cell Signaling #9252), phospho-c-Jun (Cell Signaling #3270), MDM2 (Sigma M4308) and p53 (Cell Signaling #2527). HRP-conjugated anti-rabbit and anti-mouse secondary antibodies were from Cell Signaling. The bands were visualized with SuperSignal West Femto Substrate (Thermo). Quantitation was done using Image Lab Software v5.2.1.

The target of experiment [3] is T3, JNK2 (Homo sapiens, UniProt P45984).
T3 construct: A549 lung adenocarcinoma cells were purchased from ATCC and cultured in RPMI1640 Medium; endogenous in cells; host or cells: A549
T3 sequence (P45984 whole entry): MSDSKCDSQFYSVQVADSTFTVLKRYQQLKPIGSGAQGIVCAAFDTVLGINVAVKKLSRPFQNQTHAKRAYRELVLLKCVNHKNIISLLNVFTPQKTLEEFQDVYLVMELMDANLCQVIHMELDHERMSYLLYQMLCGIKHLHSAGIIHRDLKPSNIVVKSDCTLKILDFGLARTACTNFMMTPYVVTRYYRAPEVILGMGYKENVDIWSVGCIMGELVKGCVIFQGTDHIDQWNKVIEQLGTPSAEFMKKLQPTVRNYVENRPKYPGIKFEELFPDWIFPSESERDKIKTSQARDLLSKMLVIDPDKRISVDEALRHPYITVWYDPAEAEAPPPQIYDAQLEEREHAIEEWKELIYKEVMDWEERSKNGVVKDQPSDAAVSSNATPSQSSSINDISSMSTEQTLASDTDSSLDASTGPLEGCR
The experiment in a line: Cellular assay of JNK degradation (A549 cells, Western blot), JNK2. As to conditions: for JNK2 degradation range: PROTAC concentration 1 μM, relative to DMSO control; for DC50: read-out: JNK2 DC50 range. The procedure: as §1

T2 sequence (P45983 whole entry): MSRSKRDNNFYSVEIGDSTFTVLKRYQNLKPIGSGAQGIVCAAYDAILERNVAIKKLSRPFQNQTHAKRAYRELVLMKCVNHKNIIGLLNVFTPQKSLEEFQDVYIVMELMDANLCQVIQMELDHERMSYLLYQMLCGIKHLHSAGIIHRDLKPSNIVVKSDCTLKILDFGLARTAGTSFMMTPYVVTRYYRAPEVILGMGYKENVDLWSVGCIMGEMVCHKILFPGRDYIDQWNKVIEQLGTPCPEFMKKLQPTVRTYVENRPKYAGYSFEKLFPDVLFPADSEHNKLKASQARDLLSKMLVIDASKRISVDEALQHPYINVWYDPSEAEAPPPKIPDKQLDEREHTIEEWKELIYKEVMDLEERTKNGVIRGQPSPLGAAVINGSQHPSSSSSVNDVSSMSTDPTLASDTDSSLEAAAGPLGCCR
T1 sequence (Q15910 whole entry): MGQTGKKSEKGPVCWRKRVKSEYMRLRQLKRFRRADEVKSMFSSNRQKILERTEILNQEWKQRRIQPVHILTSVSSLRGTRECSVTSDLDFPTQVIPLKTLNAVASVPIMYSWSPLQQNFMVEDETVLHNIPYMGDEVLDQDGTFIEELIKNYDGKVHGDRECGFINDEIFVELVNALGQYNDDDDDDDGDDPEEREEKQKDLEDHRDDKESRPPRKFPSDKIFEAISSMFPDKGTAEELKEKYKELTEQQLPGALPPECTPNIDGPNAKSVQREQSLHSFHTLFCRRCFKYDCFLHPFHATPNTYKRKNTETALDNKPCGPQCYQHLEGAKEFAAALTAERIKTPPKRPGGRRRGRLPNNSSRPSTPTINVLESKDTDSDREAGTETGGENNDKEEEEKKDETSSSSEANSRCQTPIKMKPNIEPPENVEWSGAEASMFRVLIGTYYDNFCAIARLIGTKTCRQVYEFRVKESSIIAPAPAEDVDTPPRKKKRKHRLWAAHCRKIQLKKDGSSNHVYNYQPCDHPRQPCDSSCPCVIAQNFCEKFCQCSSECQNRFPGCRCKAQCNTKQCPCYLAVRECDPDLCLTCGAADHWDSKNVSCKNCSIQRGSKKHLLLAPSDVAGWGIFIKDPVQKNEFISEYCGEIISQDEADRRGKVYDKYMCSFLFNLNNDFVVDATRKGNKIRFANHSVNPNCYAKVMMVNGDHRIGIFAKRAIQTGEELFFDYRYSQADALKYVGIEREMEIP
T1 sequence (O75530 whole entry partner): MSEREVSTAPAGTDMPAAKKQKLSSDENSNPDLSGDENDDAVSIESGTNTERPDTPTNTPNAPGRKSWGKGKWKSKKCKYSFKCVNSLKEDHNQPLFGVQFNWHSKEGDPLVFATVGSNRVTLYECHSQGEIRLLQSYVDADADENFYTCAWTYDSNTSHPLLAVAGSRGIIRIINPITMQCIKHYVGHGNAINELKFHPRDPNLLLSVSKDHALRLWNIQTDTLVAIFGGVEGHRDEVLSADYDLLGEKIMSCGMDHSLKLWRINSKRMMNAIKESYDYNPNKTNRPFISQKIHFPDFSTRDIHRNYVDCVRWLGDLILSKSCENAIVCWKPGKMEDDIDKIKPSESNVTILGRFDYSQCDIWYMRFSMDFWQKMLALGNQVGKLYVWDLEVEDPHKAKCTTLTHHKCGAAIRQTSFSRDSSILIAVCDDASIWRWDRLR
T1 sequence (Q15022 whole entry partner): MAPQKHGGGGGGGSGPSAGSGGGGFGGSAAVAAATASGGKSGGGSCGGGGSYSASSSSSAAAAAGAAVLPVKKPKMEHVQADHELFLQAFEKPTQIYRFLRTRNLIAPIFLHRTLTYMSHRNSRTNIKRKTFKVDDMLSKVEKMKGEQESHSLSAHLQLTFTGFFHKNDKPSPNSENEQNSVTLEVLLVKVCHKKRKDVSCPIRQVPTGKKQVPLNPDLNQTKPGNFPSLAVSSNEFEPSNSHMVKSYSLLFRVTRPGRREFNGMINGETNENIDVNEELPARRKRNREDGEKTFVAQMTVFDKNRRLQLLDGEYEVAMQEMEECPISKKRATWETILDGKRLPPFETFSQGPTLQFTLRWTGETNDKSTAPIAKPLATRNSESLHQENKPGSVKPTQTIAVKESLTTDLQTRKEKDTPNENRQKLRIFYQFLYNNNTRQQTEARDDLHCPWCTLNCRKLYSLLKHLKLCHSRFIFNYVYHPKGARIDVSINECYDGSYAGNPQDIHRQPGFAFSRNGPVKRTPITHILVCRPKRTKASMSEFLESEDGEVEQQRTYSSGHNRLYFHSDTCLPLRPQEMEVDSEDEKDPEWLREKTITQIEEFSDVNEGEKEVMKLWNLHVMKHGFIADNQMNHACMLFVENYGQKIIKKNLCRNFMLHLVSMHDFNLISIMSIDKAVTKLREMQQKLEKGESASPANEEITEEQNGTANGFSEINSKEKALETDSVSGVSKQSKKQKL

In the case of `CCN(c1cc(-c2ccc(OCCOCCOCCOCCOCCOc3ccc(CCN4CC[C@H]5CCN(C(=O)[C@@H](NC(=O)[C@H](C)NC)C6CCCCC6)[C@H]5C4)cc3)cc2)cc(C(=O)NCc2c(C)cc(C)[nH]c2=O)c1C)C1CCOCC1` (racemic) [Example 8, 5-(4-[[1-(4-[2-[1-[(2S)-2-cyclohexyl-2-[(2S)-2-(methylamino)propanamido]acetyl]-octahydro-1H-pyrrolo[2,3-c]pyridin-6-yl]ethyl]phenyl)-1,4,7,10,13-pentaoxapentadecan-15-yl]oxy]phenyl)-N-[(4,6-dimethyl-2-oxo-1,2-dihydropyridin-3-yl)methyl]-3-[ethyl(oxan-4-yl)amino]-2-methylbenzamide], the “Target protein degradation range” value in experiment [1] is “C (degradation between 0% and 30%)”.
`CCN(c1cc(-c2ccc(OCCOCCOCCOc3ccc(CCN4CC[C@H]5CCN(C(=O)[C@@H](NC(=O)[C@H](C)NC)C6CCCCC6)[C@H]5C4)cc3)cc2)cc(C(=O)NCc2c(C)cc(C)[nH]c2=O)c1C)C1CCOCC1` (racemic) [Example 9, 5-[4-(2-[2-[2-(4-[2-[1-[(2S)-2-cyclohexyl-2-[(2S)-2-(methylamino)propanamido]acetyl]-octahydro-1H-pyrrolo[2,3-c]pyridin-6-yl]ethyl]phenoxy)ethoxy]ethoxy]ethoxy)phenyl]-N-[(4,6-dimethyl-2-oxo-1,2-dihydropyridin-3-yl)methyl]-3-[ethyl(oxan-4-yl)amino]-2-methylbenzamide]: the “Target protein degradation range” value in experiment [1] was “C (degradation between 0% and 30%)”.
In the case of `CN[C@@H](C)C(=O)N[C@H](C(=O)N1CC[C@@H]2CCN(CCc3ccc(OCCOCCOCCOCCOC4CCC(Nc5nccc(-c6cnn(Cc7ccccc7)c6N(C)C)n5)CC4)cc3)C[C@@H]21)C1CCCCC1` (mixture of isomers) [Example 19, (2S)—N-[(1S)-1-cyclohexyl-2-oxo-2-(6-[2-[4-([1-[(1r,4r)-4-([4-[1-benzyl-5-(dimethylamino)-1H-pyrazol-4-yl]pyrimidin-2-yl]amino)cyclohexyl]-1,4,7,10-tetraoxadodecan-12-yl]oxy)phenyl]ethyl]-octahydro-1H-pyrrolo[2,3-c]pyridin-1-yl)ethyl]-2-(methylamino)propanamide], in experiment [2], the JNK1 degradation range result is recorded as “A (degradation more than 60%)” and the DC50 (as a rule, the concentration at which degradation of the target reaches its halfway point) was in the range of 1 to 100 nM. For the same compound, in experiment [3], the JNK2 degradation range result is listed as “A (degradation more than 60%)” and the DC50 lay within 100 to 1000 nM.
Take `CCN(c1cc(-c2ccc(OCCOCCOCCOc3ccc(-c4csc([C@@H]5CCCN5C(=O)[C@@H](NC(=O)[C@H](C)NC)C5CCCCC5)n4)c4ccccc34)cc2)cc(C(=O)NCc2c(C)cc(C)[nH]c2=O)c1C)C1CCOCC1` [Example 10, 5-[4-[2-(2-[2-[(4-[2-[(2S)-1-[(2S)-2-cyclohexyl-2-[(2S)-2-(methylamino)propanamido]acetyl]pyrrolidin-2-yl]-1,3-thiazol-4-yl]naphthalen-1-yl)oxy]ethoxy]ethoxy)ethoxy]phenyl]-N-[(4,6-dimethyl-2-oxo-1,2-dihydropyridin-3-yl)methyl]-3-[ethyl(oxan-4-yl)amino]-2-methylbenzamide]: in experiment [1], the “Target protein degradation range” value is “B (degradation between 30% and 60%)”.
Same read-out and setting: next, `CCN(c1cc(-c2ccc(OCCOCCOCCOCCOCCOc3ccc(-c4csc([C@@H]5CCCN5C(=O)[C@@H](NC(=O)[C@H](C)NC)C5CCCCC5)n4)c4ccccc34)cc2)cc(C(=O)NCc2c(C)cc(C)[nH]c2=O)c1C)C1CCOCC1` [Example 11, 5-(4-[[1-(4-[2-[(2S)-1-[(2S)-2-cyclohexyl-2-[(2S)-2-(methylamino)propanamido]acetyl]pyrrolidin-2-yl]-1,3-thiazol-4-yl]naphthalen-1-yl)-1,4,7,10,13-pentaoxapentadecan-15-yl]oxy]phenyl)-N-[(4,6-dimethyl-2-oxo-1,2-dihydropyridin-3-yl)methyl]-3-[ethyl(oxan-4-yl)amino]-2-methylbenzamide]: “B (degradation between 30% and 60%)”.
For the compound `CN[C@@H](C)C(=O)N[C@H](C(=O)N1CCC[C@H]1c1nc(-c2ccc(OCCOCCOCCOCCOCCO[C@H]3CC[C@H](Nc4nccc(-c5cnn(Cc6ccccc6)c5N(C)C)n4)CC3)c3ccccc23)cs1)C1CCCCC1` [Example 12, (2S)—N-[(1S)-1-cyclohexyl-2-oxo-2-[(2S)-2-[4-[4-([1-[(1r,4r)-4-([4-[1-benzyl-5-(dimethylamino)-1H-pyrazol-4-yl]pyrimidin-2-yl]amino)cyclohexyl]-1,4,7,10,13-pentaoxapentadecan-15-yl]oxy)naphthalen-1-yl]-1,3-thiazol-2-yl]pyrrolidin-1-yl]ethyl]-2-(methylamino)propanamide], in experiment [2], the JNK1 degradation range result is recorded as “A (degradation more than 60%)” and the DC50 fell in the range of 1 to 100 nM. Besides, in experiment [3], the JNK2 degradation range result is “B (degradation between 30% and 60%)”.
As to `CN[C@@H](C)C(=O)N[C@H](C(=O)N1CCC[C@H]1c1nc(-c2ccc(OCCOCCO[C@H]3CC[C@H](Nc4nccc(-c5cnn(Cc6ccccc6)c5N(C)C)n4)CC3)c3ccccc23)cs1)C1CCCCC1` [Example 13, (2S)—N-[(1S)-1-cyclohexyl-2-oxo-2-[(2S)-2-(4-[4-[2-(2-[[(1r,4r)-4-([4-[1-benzyl-5-(dimethylamino)-1H-pyrazol-4-yl]pyrimidin-2-yl]amino)cyclohexyl]oxy]ethoxy)ethoxy]naphthalen-1-yl]-1,3-thiazol-2-yl)pyrrolidin-1-yl]ethyl]-2-(methylamino)propanamide], in experiment [2], the JNK1 degradation range result is “A (degradation more than 60%)” and the DC50 fell in the range of 1 to 100 nM. In experiment [3], the JNK2 degradation range entry is “A (degradation more than 60%)” and the DC50 is 100 to 1000 nM.
As to `CN[C@@H](C)C(=O)N[C@H](C(=O)N1CCC[C@H]1c1nc(-c2ccc(OCCOCCOCCOC3CCC(Nc4nccc(-c5cnn(Cc6ccccc6)c5N(C)C)n4)CC3)c3ccccc23)cs1)C1CCCCC1` (stereo partly drawn) [Example 14, (S)—N—((S)-2-((S)-2-(4-(4-(2-(2-(2-((1r,4r)-4-(4-(1-benzyl-5-(dimethylamino)-1H-pyrazol-4-yl)pyrimidin-2-ylamino)cyclohexyloxy)ethoxy)ethoxy)ethoxy)naphthalen-1-yl)thiazol-2-yl)pyrrolidin-1-yl)-1-cyclohexyl-2-oxoethyl)-2-(methylamino)propanamide], in experiment [2], the JNK1 degradation range result is “A (degradation more than 60%)” and the DC50 was 1 to 100 nM. In experiment [3], the JNK2 degradation range entry was “B (degradation between 30% and 60%)”.
As for `CN[C@@H](C)C(=O)N[C@H](C(=O)N1CCC[C@H]1c1nc(-c2ccc(OCCOCCOCCOCCOC3CCC(Nc4nccc(-c5cnn(Cc6ccccc6)c5N(C)C)n4)CC3)c3ccccc23)cs1)C1CCCCC1` (stereo partly drawn) [Example 15, (2S)—N-[(1S)-1-cyclohexyl-2-oxo-2-[(2S)-2-[4-[4-([1-[(1r,4r)-4-([4-[1-benzyl-5-(dimethylamino)-1H-pyrazol-4-yl]pyrimidin-2-yl]amino)cyclohexyl]-1,4,7,10-tetraoxadodecan-12-yl]oxy)naphthalen-1-yl]-1,3-thiazol-2-yl]pyrrolidin-1-yl]ethyl]-2-(methylamino)propanamide], in experiment [2], the JNK1 degradation range entry was “A (degradation more than 60%)” and the DC50 lay in the range of 100 to 1000 nM. Also, the JNK2 degradation range entry in experiment [3] is “B (degradation between 30% and 60%)”.
